Assay results reported in patent US20180153867A1, “TREATMENT OF PROSTATE CANCER BY CONCOMITANT ADMINISTRATION OF A BROMODOMAIN INHIBITOR AND A SECOND AGENT” (Gilead Sciences, Inc., priority 2016, published 2018).
“Also recorded” adds a separate entry of the source.

Experiments:
[1] = test system: VCaP (AR-V7 positive) cells; assay: Cell growth inhibition in VCaP cells (Cell Titer-Glo, 96 hours); format: cell-based; settings: for effect on growth and number of viable VCaP cells (in words): single agent, 3 to 10,000 nM; for effect on growth and number of viable VCaP cells (in words) / inhibition of cell growth and viability: 96 hours; for EC50: Homo sapiens, VCaP
Method: (§1) VCaP cells were grown under standard cell culture conditions in 10% fetal bovine serum (FBS). LNCaP cells were grown in charcoal stripped FBS supplemented with 10 nM DHT in a 3-dimensional cell spheroid culture system, which increases androgen-dependent growth. […] This concentration of enzalutamide (3000 nM) was chosen for the combination study because it matches the clinical steady state trough level of enzalutamide at the recommended dose of 160 mg QD after accounting for differences in protein binding between cell culture media and human plasma. Cell growth and number was measured by quantification of the total cellular ATP content (Cell Titer-Glo® Luminescent Cell Viability Assay) at the time of compound addition (T=0), and after 96 hours of treatment.
(§2) Referring again to FIG. 1, the Y-axis is normalized CellTiter-Glo values where the bottom of the assay (no ATP)=0% and the DMSO-treated cells=100% at the end of the assay. T=0 represents the CellTiter-Glo signal recorded at the time of compound addition. […] One representative of three independent experiments is shown.

[2] = patients, enzalutamide; cited from earlier work
[3] = test system: LNCaP (AR-V7 negative) cells; assay: Cell growth inhibition in LNCaP cells, 3-dimensional spheroid culture (Cell Titer-Glo, 96 hours); format: cell-based
Method: as §1, §2

[4] = Protein binding difference between cell culture media and human plasma; format: in vitro ADME; settings: cell culture media vs human plasma
[5] = dog, in vivo
Method: The Phase 1 study will be a 3+3 dose escalation to evaluate the safety, tolerability, PK, and maximum tolerated dose of compound (I-1) after multiple dosing in patients with CRPC. The initial dose will be at 0.6 mg, and intensive safety, PK and PD monitoring will occur prior to each dose escalation. […] Approximately six dose levels will be explored. The PD assessment will be a NanoString assay that measures levels of HEXIM1 and CCR2 RNA in peripheral blood cells.

[6] = compound (I-1) alone at its projected Cmax
[7] = compound (I-1) alone at its projected Cmin
[8] = compound (I-1) at its projected Cmax with 3,000 nM enzalutamide
[9] = compound (I-1) at its projected Cmin with 3,000 nM enzalutamide

| SMILES | effect on growth and number of viable VCaP cells (in words) [1] | OS HR [2] | increase in OS [2] [month] | EC50 ([1]; compound (I-1) alone) [nM] | EC50 ([1]; in the presence of 3,000 nM enzalutamide) [nM] | inhibition of cell growth and viability [1, 6] [%] | inhibition of cell growth and viability [1, 7] [%] | inhibition of cell growth and viability [1, 8] [%] | inhibition of cell growth and viability [1, 9] [%] | inhibition of cell growth and viability [3, 6] [%] | inhibition of cell growth and viability [3, 7] [%] | inhibition of cell growth and viability [3, 8] [%] | inhibition of cell growth and viability [3, 9] [%] | difference in protein binding between cell culture media and human plasma [4] [×] | dose/toxicity relationship [5] |
| --- | --- | --- | --- | --- | --- | --- | --- | --- | --- | --- | --- | --- | --- | --- | --- |
| CNC(=O)c1ccc(N2C(=S)N(c3ccc(C#N)c(C(F)(F)F)c3)C(=O)C2(C)C)cc1F [enzalutamide] | reduced the growth of VCaP cells but the magnitude of growth suppression was significantly less than that observed for compound (I-1) | 0.69 | 3.4 | – | – | – | – | – | – | – | – | – | – | – | – |
| Cc1noc(C)c1-c1cc(C(O)(c2ccccn2)c2ccccn2)c2nc(C3CC3)[nH]c2c1 [compound (I-1), (2-cyclopropyl-6-(3,5-dimethylisoxazol-4-yl)-1H-benzo[d]imidazol-4-yl)di(pyridin-2-yl)methanol] | potently reduced the growth of VCaP cells; also recorded: decreased the number of viable cells to below that recorded at the beginning of the assay (T=0) | – | – | 130 | 75 | 40 | 0 | 65 | 25 | 45 | 20 | 65 | 45 | 5.7 | steep dose/toxicity relationship |
